In ChEMBL document CHEMBL1201862, “PubChem BioAssay data set” (2004):
Active and inactive are the calls of the source.

Tests used:
[1] = molecular target: Induced myeloid leukemia cell differentiation protein Mcl-1 (Homo sapiens, UniProt Q07820); assay type: functional
[2] = ADAM10 inhibitors, peptide cleavage, dose response, biochemical, QFRET (AID 743254);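 note: ADAM10 enzyme with the DM2 quenched FRET peptide as substrate; EDANS fluorescence gain as the protease cuts the substrate; inhibitor potency against ADAM10 proteolytic activity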
[3] = molecular target: T1, Disintegrin and metalloproteinase domain-containing protein 17 (Homo sapiens, UniProt P78536); assay: ADAM17 protease inhibitors, dose response, counter-screen for ADAM10 exosite inhibitor project, biochemical, quenched FRET substrate (AID 743253)
[4] = molecular target: COUP transcription factor 2 (Homo sapiens, UniProt P24468); assay: Luminescence-based cell-based high throughput dose response assay to identify inhibitors of COUP-TFII (NR2F2).; assay type: functional;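 note: HEK293 cells transiently cotransfected with COUP-TFII expression vector and reporter; luciferase reporter luminescence driven by COUP-TFII from the pX2-168 reporter plasmid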
HEK293 [5] = assay: NOD1 signaling inhibitors, primary screen, cell-based, luminescence, uHTS (AID 1578); assay type: functional; conditions: Homo sapiens
HEK293 [6] = assay: cells; assay type: functional, cell-based; conditions: Homo sapiens
HEK293 [7] = assay: cells; assay type: functional, cell-based; conditions: Homo sapiens; remark: listed apart in the source
HEK293 [8] = assay: NOD2 signaling inhibitors in MDP-stimulated cells, cell-based, uHTS, luminescence (AID 2001); assay type: functional; conditions: Homo sapiens
[9] = HepG2 cell cytotoxicity, dose response, cytotoxicity control for Shn3 inhibitor project, CellTiter-Glo, cherry-picked (AID 624134); assay type: functional, cell-based
INS1 = assay: beta cell apoptosis inhibitors, cytokine rescue, dose response, luminescence, retest (AID 449756); assay type: functional, cell-based; conditions: Rattus norvegicus;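 note: cell death triggered by IL-1 beta plus TNF-alpha plus IFN-gamma mixture; protective hits raise ATP signal compared with cytokine alone wells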
[10] = Shn3 3'UTR reporter inhibitors, dose response, cell-based, Clone20 osteoblasts, firefly luciferase, cherry-picked (AID 624132); assay type: functional;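 note: firefly luciferase luminescence from reporter carrying the Shn3 3'UTR in osteoblasts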
[11] = control 3'UTR Renilla luciferase suppression, dose response, counter-screen for Shn3 inhibitor project, cell-based, Clone20-Shn3RL, cherry-picked (AID 624133); assay type: functional
[12] = cytotoxicity in KRAS-transformed pancreatic duct cells, primary screen, cell-based, fluorescence, HTS (AID 431); assay type: functional; conditions: Homo sapiens;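 note: cell line used: HPDE-C7K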
[13] = cytotoxicity in HPDE-C7 cells, cell-based, fluorescence, HTS (AID 430); assay type: functional; conditions: Homo sapiens
[14] = A375 melanoma cell viability loss, dose response, counter-screen for MITF inhibitor project, CellTiter-Glo luminescence, dry powder, set 4 (AID 624364); assay type: functional, cell-based; conditions: A-375;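 note: A375 melanoma cells are MITF independent so this is a counter screen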
[15] = A375 melanoma cell cytotoxicity, dose response, counter-screen for MITF inhibitor project, CellTiter-Glo luminescence, dry powder, set 2 (AID 624489); assay type: functional, cell-based; conditions: A-375;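 note: actives are compounds lowering A375 viability meaning general cytotoxicity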
[16] = molecular target: T2, Microphthalmia-associated transcription factor (Homo sapiens, UniProt O75030); assay: TRPM1 promoter luciferase signal decrease, dose response, MITF inhibitor project, cell-based, SK-MEL-5, cherry-picked, set 3 (AID 493073); assay type: functional
T2 sequence (O75030 whole entry): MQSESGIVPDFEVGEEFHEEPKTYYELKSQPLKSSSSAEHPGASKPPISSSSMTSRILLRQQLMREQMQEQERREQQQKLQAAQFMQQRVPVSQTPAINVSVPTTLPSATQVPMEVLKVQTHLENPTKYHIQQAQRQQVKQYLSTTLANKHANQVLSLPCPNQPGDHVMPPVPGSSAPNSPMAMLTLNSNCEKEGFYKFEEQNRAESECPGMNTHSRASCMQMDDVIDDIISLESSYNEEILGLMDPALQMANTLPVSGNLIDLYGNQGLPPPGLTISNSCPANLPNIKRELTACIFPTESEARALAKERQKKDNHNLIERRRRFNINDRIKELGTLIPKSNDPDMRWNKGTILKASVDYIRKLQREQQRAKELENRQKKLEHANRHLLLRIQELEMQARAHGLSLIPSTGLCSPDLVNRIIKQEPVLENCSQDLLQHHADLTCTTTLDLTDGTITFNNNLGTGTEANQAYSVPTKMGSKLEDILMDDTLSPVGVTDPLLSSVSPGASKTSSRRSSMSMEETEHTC

[17] = growth suppression of beta-catenin-knockout colon cells, dose response, cell-based, HCT116, human colon tumor (AID 1045); assay type: functional;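 note: HCT116 colon tumor cells with beta catenin knocked out; cells exposed to compound for 60 hours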
[18] = growth suppression of PTEN-null colon cells, dose response, cell-based, HCT116 PTEN knockout (AID 1047); assay type: functional;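 note: HCT116 colon tumor cells with PTEN knocked out; cells exposed to compound for 60 hours before readout; potency for loss of cell viability measured by luminescence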
[19] = inhibitors of PGC1a acetylation in cells, dose response, cell-based, cherry-picked samples (AID 720514); assay type: functional;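 note: potency may reflect raised or lowered acetylation signal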
cells [20] = conditions: HEK293
[21] = HepG2 cell cytotoxicity, dose response, cytotoxicity control, ATP luminescence, cherry-pick, set 6 (AID 1053125); assay type: functional, cell-based
cells [22] = assay: cells
Major prion protein = Major prion protein (Homo sapiens, UniProt P04156); assay type: functional, cell-based
cells [23] = assay type: functional, cell-based; conditions: HEK-CNG
Caspase-6 = Caspase-6 (Homo sapiens, UniProt P55212); assay: human caspase-6 inhibitors, dose response, biochemical, VEID-R110 fluorescence, cherry-pick (AID 720632)
[24] = inhibitors of SNCA 5'UTR-driven reporter translation, confirmation, H4 neuroglioma cells, luminescence (AID 1988); assay type: functional, cell-based
[25] = inhibitors of firefly luciferase expression or activity, dose response, H4 neuroglioma cells, luminescence (AID 1990); assay type: functional, cell-based
cells [26] = assay type: functional, cell-based
[27] = molecular target: T3, Nuclear receptor subfamily 0 group B member 1 (Homo sapiens, UniProt P51843); assay type: functional, cell-based;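 note: HEK293T cells transfected with SF-1 and DAX-1 plus StAR promoter luciferase reporter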
T3 sequence (P51843 whole entry): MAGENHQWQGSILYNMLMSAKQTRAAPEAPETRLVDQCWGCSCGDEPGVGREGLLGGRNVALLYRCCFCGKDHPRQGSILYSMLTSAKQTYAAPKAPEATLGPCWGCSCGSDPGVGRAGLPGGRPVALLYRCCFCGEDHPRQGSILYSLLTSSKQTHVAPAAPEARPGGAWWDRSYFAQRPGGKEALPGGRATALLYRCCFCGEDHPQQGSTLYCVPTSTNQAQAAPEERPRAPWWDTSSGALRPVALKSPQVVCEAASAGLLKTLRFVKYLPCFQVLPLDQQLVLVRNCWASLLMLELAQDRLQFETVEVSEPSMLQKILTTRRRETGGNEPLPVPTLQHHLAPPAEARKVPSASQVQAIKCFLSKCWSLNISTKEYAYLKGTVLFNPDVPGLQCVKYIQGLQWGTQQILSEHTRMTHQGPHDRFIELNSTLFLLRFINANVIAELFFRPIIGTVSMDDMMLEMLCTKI

[28] = Luminescence Cell-Based Dose Response HTS to Identify Inhibitors of 5'UTR Stem-Loop Driven Prion Protein mRNA Translation in H4 Neuroglioblastoma Cells. [Related pubchem assays: 1827 (Project Summary), 1813 (Primary HTS)]; assay type: functional
[29] = molecular target: T4, Trace amine-associated receptor 1 (Homo sapiens, UniProt Q96RJ0); assay: Fluorescence-based cell-based high throughput dose response assay to identify agonists of the human trace amine associated receptor 1 (TAAR1).; assay type: functional
T4 sequence (Q96RJ0 whole entry): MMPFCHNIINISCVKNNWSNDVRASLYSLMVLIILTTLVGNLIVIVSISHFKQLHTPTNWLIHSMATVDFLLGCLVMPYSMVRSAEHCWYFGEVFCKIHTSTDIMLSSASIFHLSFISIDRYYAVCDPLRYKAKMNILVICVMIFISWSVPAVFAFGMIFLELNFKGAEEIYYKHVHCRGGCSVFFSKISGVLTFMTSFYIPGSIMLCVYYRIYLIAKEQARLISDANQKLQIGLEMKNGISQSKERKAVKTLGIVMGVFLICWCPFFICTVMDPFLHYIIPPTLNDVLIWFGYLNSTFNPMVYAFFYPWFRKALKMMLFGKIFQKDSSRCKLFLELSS

cells [30] = assay type: functional, cell-based; remark: listed apart in the source
cells [31] = assay type: functional, cell-based; remark: listed apart in the source
[32] = molecular target: T4, Trace amine-associated receptor 1; assay: Counterscreen for agonists of the human trace amine associated receptor 1 (hTAAR1): Fluorescence-based cell-based high throughput dose response assay to identify hTAAR1 agonist that also desensitize TAAR1 receptor response.; assay type: functional
[33] = molecular target: Hepatocyte nuclear factor 4-alpha (Homo sapiens, UniProt P41235); assay type: functional, cell-based;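 note: biochemical luminescence-based dose-response counterscreen measuring inhibition of HNF4 dimerization, run alongside a screen for blockers of ABHD5–perilipin-5 interaction; split luciferase complementation of HNF4 fusion proteins in cell lysate measuring dimerization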
Paired box protein Pax-8 = Paired box protein Pax-8 (Homo sapiens, UniProt Q06710); assay: inhibitors of PAX8-driven TPO luciferase reporter, dose response, RMG-I cells, cherry-pick (AID 687027); assay type: functional, cell-based;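 note: luciferase reporter driven by Pax8 target thyroperoxidase promoter measured by SteadyGlo luminescence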
[34] = molecular target: Tyrosyl-DNA phosphodiesterase 2 (Homo sapiens, UniProt O95551); assay: human TDP2 enzyme inhibitors, dose response, biochemical, epi absorbance, IC50 (AID 743297)
[35] = molecular target: T5, Sentrin-specific protease 8 (Homo sapiens, UniProt Q96LD8); assay type: functional
T5 sequence (Q96LD8 whole entry): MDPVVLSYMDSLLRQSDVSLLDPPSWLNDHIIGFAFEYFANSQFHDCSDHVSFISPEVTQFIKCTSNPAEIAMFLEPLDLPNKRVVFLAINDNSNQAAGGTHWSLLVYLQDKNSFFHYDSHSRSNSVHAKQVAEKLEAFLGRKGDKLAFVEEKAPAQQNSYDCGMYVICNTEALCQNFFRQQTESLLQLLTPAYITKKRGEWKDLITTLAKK

[36] = molecular target: T5, Sentrin-specific protease 8; assay type: functional; remark: listed apart in the source
[37] = ADAM10 protease inhibitors, dose response, selectivity assay for ADAM17 exosite inhibitor project, biochemical, FRET peptide substrate, recombinant human ADAM10 (AID 743259);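 note: ADAM10 enzyme cleaving a FRET peptide substrate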
[38] = molecular target: T1, Disintegrin and metalloproteinase domain-containing protein 17; assay: exosite inhibitors of ADAM17, dose response, biochemical (AID 743260)
Galanin receptor type 3 = Galanin receptor type 3 (Homo sapiens, UniProt O60755); assay: Fluorescence-based cell-based primary high throughput dose response assay to identify antagonists of the Galanin Receptor 3 (GalR3).; assay type: functional

CN(C)c1ccc(NC(=O)c2cn(-c3ccccc3)nc2-c2cccs2)cc1
IC50 [1]: 2.48 µM (not active) | IC50 [2]: > 69.5 µM (inactive) | IC50 [3]: > 69.5 µM (inactive)

CCN(CC)S(=O)(=O)c1cccc(NC(=O)CNc2cccc(S(=O)(=O)N3CCCC3)c2)c1
IC50 [4]: 3.33 µM (active) | EC50 (HEK293 [5]): 0.56 µM (active) | IC50 (HEK293 [6]): 2.55 µM (active) | IC50 (HEK293 [7]): 14.6 µM (active) | IC50 (HEK293 [8]): 3.47 µM (active) | AC50 [9]: 1.11 µM (active) | AC50 (INS1): 3.73 µM (active) | AC50 [10]: 0.317 µM (active) | AC50 [11]: 33.8 µM (active)

C=C(C)COc1ccc(-c2n[nH]cc2-c2ccccc2OC)c(O)c1
EC50 [12]: 11.3 µM (active) | IC50 [2]: 10.6 µM (inactive) | EC50 [13]: 13.7 µM (active) | IC50 [3]: > 69.5 µM (inactive)

CCN1c2ccccc2NC2N=C(OC)C(c3ccccc3)C21 (stereo not given)
AC50 [14]: 50.4 µM (active) | AC50 [15]: 29.7 µM (active) | AC50 [16]: 7.51 µM (active) | EC50 [17]: 7.49 µM (active) | AC50 (INS1): 1.26 µM (active) | EC50 [18]: 8.12 µM (active)

CCN1C(C#N)=C(C#N)N=C(C)CC1(C)C
AC50 [19]: 30.5 µM (active)

S=C(NCC1CCCO1)N1CCN(Cc2ccccc2Cl)CC1 (stereo not given)
AC50 (cells [20]): > 24 µM (inactive) | AC50 [21]: 38.4 µM (active)

Cc1ccc(C(=O)NC2CCCc3c2cnn3-c2ccc(F)cc2F)cn1 (stereo not given)
IC50 [4]: 3.66 µM (active) | AC50 [9]: 2.34 µM (active) | AC50 (INS1): 4.93 µM (active) | AC50 [10]: 0.921 µM (active) | AC50 [11]: 6.81 µM (active)

COc1ccc(NC(=O)NNC(=O)COc2ccc3cc(Br)ccc3c2)cc1OC
IC50 (cells [22]): > 138 µM (inactive) | IC50 (Major prion protein): 5.33 µM (active)

Fc1ccc(N=C(S)NNc2ncc(C(F)(F)F)cc2Cl)c(F)c1
EC50 (cells [23]): > 29.9 µM (inactive)

Cc1cccc(NC2=C(NCCO)C(=O)c3ccccc3C2=O)c1
AC50 (Caspase-6): 9.36 µM (active)

CN1CCN(c2ccc(NC(=O)c3ccc4ccccc4c3)cc2)CC1
EC50 [24]: 9.94 µM (inconclusive) | EC50 [25]: 7.8 µM (inconclusive) | IC50 (cells [26]): > 67.6 µM (inactive) | IC50 [27]: > 67.6 µM (inactive) | EC50 [28]: 8.96 µM (inconclusive)

Cn1cccc1CNCCc1ccc(F)cc1
EC50 [29]: 6.31 µM (active) | EC50 (cells [30]): > 29.9 µM (inactive) | IC50 (cells [31]): > 29.9 µM (inactive) | IC50 [32]: 20 µM (inactive)

COc1ccc(-c2nc3ccc(Br)cn3c2Cc2cccc(F)c2)cc1OC
IC50 (cells [22]): > 138 µM (inactive) | IC50 (Major prion protein): 6.96 µM (active)

C#CCN(C[C@@H]1[C@@H](OC(=O)NCC2CCCCC2)[C@@H](OC(=O)NCC2CCCCC2)Cn2c(=O)ccc(=O)n21)S(=O)(=O)c1ccc(C)cc1
IC50 [33]: 29.3 µM (inactive) | AC50 (Paired box protein Pax-8): 3.03 µM (active) | AC50 [9]: 6.53 µM (active) | AC50 [19]: 1.65 µM (active) | AC50 [10]: 2.49 µM (active) | AC50 [11]: 3.96 µM (active)

Cc1ccc(C(=O)Nc2c(-c3ccc(Cl)cc3)n[nH]c2O)cc1
IC50 [34]: > 128 µM (inactive) | IC50 [35]: 39.9 µM (active) | IC50 [36]: 63.5 µM (inactive)

O=C1C(NCCCN2CCOCC2)=C(Nc2ccccc2)C(=O)c2ccccc21
AC50 [14]: > 70 µM (inactive) | AC50 [15]: > 70 µM (inactive)

c1ccc(-n2c(SCc3cccc4ccccc34)nnc2-c2ccccn2)cc1
IC50 [37]: 24.1 µM (inactive) | IC50 [38]: > 69.4 µM (inactive)

O=C(O)CCCC(=O)OCCCc1cc2ccccc2c(=O)o1
AC50 (Caspase-6): 1.51 µM (active)

Cc1nn(CC(=O)N/N=C/c2cccs2)c(C)c1[N+](=O)[O-]
EC50 [29]: 2.82 µM (active) | EC50 (cells [30]): > 29.9 µM (inactive) | IC50 (cells [31]): > 29.9 µM (inactive) | IC50 [32]: > 29.9 µM (inactive)

CCOc1nc(C#N)nc(N2CCCCC2)n1
IC50 (Galanin receptor type 3): 1.09 µM (active) | EC50 (cells [23]): > 29.9 µM (inactive)
